This note sets out measurements from patent US20240199702A1, “CELL-PERMEABLE CYCLIC PEPTIDES AND USES THEREOF” (Unnatural Products Inc., priority 2021, published 2024).

Structures are written as SMILES. pIC50: −log10 of the molar value. *1 amine or outer side, *2 acyl side, *3 side chain or, on linkers, in order; H or OH if unused. Where a SMILES comes first, the peptide text is derived from it. [ ]: non-standard residue; d: D form. The star is where a group is joined. Ala(4-thiazolyl) = N[C@@H](Cc1cscn1)C(=O)O; NMePhe(4-F) = CN[C@@H](Cc1ccc(F)cc1)C(=O)O; Phe(4-Cl) = N[C@@H](Cc1ccc(Cl)cc1)C(=O)O; Phe(4-F) = N[C@@H](Cc1ccc(F)cc1)C(=O)O; X2 = CC1(C)CN([*:1])[C@@H]1C(=O)[*:2]; NMeF = CN[C@@H](Cc1ccccc1)C(=O)O; hSer = N[C@@H](CCO)C(=O)O; NMeA = CN[C@@H](C)C(=O)O; dNMeA = CN[C@H](C)C(=O)O; Aze = O=C(O)[C@@H]1CCN1; Butyryl = CCCC(=O)*; Nme = COCCNCC(=O)O; Sar = CNCC(=O)O

One assay deals with MV4-11 cells. The assay is described as follows: Cellular Fluorescence Assay 2 (CellTiter-Glo, 72 hours). In kind it is cell-based. As to the method:
Cellular Fluorescence Assay 2
(§1) MV4-11 cells were grown in suspension in T75 flasks in RPMI medium with 10% fetal bovine serum (FBS) at 37° C. with 5% CO2. 40 μL of MV4-11 cells were plated into columns 1-22 of white, flat bottom, 384 well plates at a density of 1,000 cells per well in RPMI with 10% FBS. Columns 23 and 24 were filled with 40 μL of media as a positive control. 100 nL of compounds dissolved in DMSO were pin transferred into columns 3-22 of the 384 well plate. Columns 1 and 2 served as negative control wells. Plates were incubated for 72 hours at 37° C. with 5% CO2. After incubation, the cells were given 10 μL of CellTiter-Glo® (Promega®). Luminescence was read on a Molecular Devices SpectraMax i3x plate reader.
For orientation: Cellular ATP, detected with luciferase, serves as a proxy for viable cell number.

The subject of the next assay is WaGa cells. The assay is described as follows: Cellular Fluorescence Assay 3 (CellTiter-Glo, 72 hours). Format: cell-based. The procedure:
Cellular Fluorescence Assay 3
as §1, with “WaGa” for “MV4-11”

Another assay deals with MOLM-13 cells. The assay is described as follows: Cellular Fluorescence Assay 1 (CellTiter-Glo, 72 hours). Format: cell-based. The procedure:
Cellular Fluorescence Assay 1
as §1, with “MOLM-13” for “MV4-11”, “ofMOLM-13” for “of MV4-11”

The subject of another assay is MKL-1 cells. Briefly: Cellular Fluorescence Assay 4 (CellTiter-Glo, 72 hours). Format: cell-based. As to the method:
Cellular Fluorescence Assay 4
as §1, with “MKL-1” for “MV4-11”, “MKL-1” for “of MV4-11”, “reader. In some embodiments, the cyclic peptide described herein is a cyclic peptide depicted in Table 1: […]” for “reader.”

The target of another assay is T1, Human MDM2 (HDM2) 1-116 (Homo sapiens, UniProt Q00987).
T1 construct: Human MDM2 (HDM2) 1-116
Briefly: Fluorescence Polarization Assay 1 (MDM2/p53 peptide). Format: binding. To be noted: FAM-labeled p53 peptide, 60 minutes. As to the method: Fluorescence Polarization Assay 1
(§2) Human MDM2 (HDM2) 1-116 (20 μL) and FAM-labeled GGTSFAEYWNLLSP-NH2, 10 nM and 5 nM respectively in 10 mM Tris, 50 mM NaCl, 0.01% Tween20, and 1 mM DTT at pH 7.4 were dispensed into an opaque, black, 384 well plate. Compounds dissolved in DMSO were pin transferred (˜100-200 nL) to the 384 well plate containing the MDM2/p53 solution. After incubation for 60 minutes, the fluorescence polarization was read on a Molecular Devices SpectraMax plate reader equipped with a Fluorescein FP cartridge. In addition to probe alone (positive control) and probe/MDM2 (negative control), a titration of linear p53(18-26) was included on every plate as an additional control. IC50 values were fit using either Prism or Collaborative Drug Discovery.

Another assay deals with T2, Human MDM4 (HDM4) 1-114 (Homo sapiens, UniProt O15151).
T2 construct: Human MDM4 (HDM4) 1-114
T2 sequence (O15151 1-114): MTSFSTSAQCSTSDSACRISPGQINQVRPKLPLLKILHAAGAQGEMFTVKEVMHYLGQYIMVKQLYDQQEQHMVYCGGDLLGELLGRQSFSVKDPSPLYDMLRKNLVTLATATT
Briefly: Fluorescence Polarization Assay 2 (MDM4/p53 peptide). In kind it is binding. To be noted: FAM-labeled p53 peptide, 60 minutes. As to the method: Fluorescence Polarization Assay 2
as §2, with “MDM4 (HDM4) 1-114” for “MDM2 (HDM2) 1-116”, “GGTSFAEYWNLLSP —NH2, 20” for “GGTSFAEYWNLLSP-NH2, 10”, “(−100-200” for “(˜100-200”, “MDM4/p53” for “MDM2/p53”, “probe/MDM4” for “probe/MDM2”
(In fluorescence polarisation assays a small probe gives low polarisation when free and higher when bound to something large.)

T1 sequence (Q00987 1-116): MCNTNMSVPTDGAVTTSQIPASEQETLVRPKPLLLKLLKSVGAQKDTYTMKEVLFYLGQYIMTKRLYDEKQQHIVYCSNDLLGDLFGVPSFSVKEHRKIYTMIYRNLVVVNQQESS

As usually defined, the pIC50 is −log10 of the IC50, conventionally taken in molar units. Low readings indicate a large IC50, high ones a small IC50. For the compound `COCC[C@@H]1NC(=O)[C@H]2CCCN2C(=O)[C@H](Cc2ccc(F)cc2)N(C)C(=O)[C@H](Cc2ccc(Cl)cc2)NC(=O)[C@@H]2CCN2C(=O)[C@H](Cc2ccc(F)cc2)NC(=O)CN(CCOC)C(=O)[C@@H](C)N(C)C(=O)[C@H](Cc2cscn2)NC(=O)CN(C)C1=O` [compound 23] (cyclo([Ala(4-thiazolyl)][dNMeA][Nme][Phe(4-F)][Aze][Phe(4-Cl)][NMePhe(4-F)][dP][hSer](Me)[Sar])), the negative-log IC50 (pIC50) in the assay with MV4-11 cells was no more than 6.82; in the assay on WaGa cells it was no more than 6.82; with MOLM-13 cells, no more than 6.82; with MKL-1 cells, no more than 5.70; at Human MDM2 (HDM2) 1-116, 7.00 to 7.30; against Human MDM4 (HDM4) 1-114, 7.00 to 7.30.

On to `COCC[C@@H]1NC(=O)[C@H]2CCCN2C(=O)[C@H](Cc2ccc(F)cc2)N(C)C(=O)[C@H](Cc2ccc(Cl)cc2)NC(=O)[C@@H]2CCN2C(=O)[C@H](Cc2ccc(F)cc2)NC(=O)CN(CCOC)C(=O)[C@@H](C)N(C)C(=O)[C@H](Cc2cscn2)NC(=O)[C@@H]2CCCN2C1=O` [compound 21] (cyclo([Ala(4-thiazolyl)][dNMeA][Nme][Phe(4-F)][Aze][Phe(4-Cl)][NMePhe(4-F)][dP][hSer](Me)P)), for which the pIC50 with MV4-11 cells was no more than 6.82; in the assay on WaGa cells, no more than 6.82; in the assay on MOLM-13 cells it was no more than 6.82; with MKL-1 cells, 5.70 to 6.00; on Human MDM2 (HDM2) 1-116, 7.00 to 7.30; against Human MDM4 (HDM4) 1-114, 7.00 to 7.30.

On to `CCCC(=O)O[C@H](C)[C@@H]1NC(=O)[C@H](Cc2ccc(F)cc2)NC(=O)CN(CCOC)C(=O)[C@@H](C)N(C)C(=O)[C@H](Cc2cscn2)NC(=O)[C@H](C)N(C)C(=O)[C@H](CCOC)NC(=O)[C@H]2CCCN2C(=O)[C@H](Cc2ccccc2)N(C)C(=O)[C@H](Cc2ccc(Cl)cc2)NC1=O` [compound 6] (cyclo([Ala(4-thiazolyl)][dNMeA][Nme][Phe(4-F)]T(Butyryl)[Phe(4-Cl)][NMeF][dP][hSer](Me)[NMeA])), for which the pIC50 in the assay on MV4-11 cells was greater than 7.30; in the assay with WaGa cells it was greater than 7.30; in the assay on MOLM-13 cells, 7.00 to 7.30; in the assay with MKL-1 cells it was greater than 6.30; against Human MDM2 (HDM2) 1-116, 7.30 to 7.60; on Human MDM4 (HDM4) 1-114 it was 7.00 to 7.30.

Turning to `COCC[C@@H]1NC(=O)[C@H]2CCCN2C(=O)[C@H](Cc2ccc(F)cc2)N(C)C(=O)[C@H](Cc2ccc(Cl)cc2)NC(=O)[C@H]2N(CC2(C)C)C(=O)[C@H](Cc2ccc(F)cc2)NC(=O)CN(CCOC)C(=O)[C@@H](C)N(C)C(=O)[C@H](Cc2cscn2)NC(=O)[C@H](C)N(C)C1=O` [compound 11] (cyclo([Ala(4-thiazolyl)][dNMeA][Nme][Phe(4-F)][X2][Phe(4-Cl)][NMePhe(4-F)][dP][hSer](Me)[NMeA])), the pIC50 in the assay with MV4-11 cells was 6.82 to 7.00; in the assay with MOLM-13 cells it was no more than 6.82; against Human MDM2 (HDM2) 1-116 it was greater than 7.60; against Human MDM4 (HDM4) 1-114 it was greater than 7.60.

For the compound `COCC[C@@H]1NC(=O)[C@H]2CCCN2C(=O)[C@H](Cc2ccccc2)N(C)C(=O)[C@H](Cc2ccc(Cl)cc2)NC(=O)[C@H]([C@@H](C)O)NC(=O)[C@H](Cc2ccc(F)cc2)NC(=O)CN(CCOC)C(=O)[C@@H](C)N(C)C(=O)[C@H](Cc2cscn2)NC(=O)[C@H](C)N(C)C1=O` [compound 18] (cyclo([hSer](Me)[NMeA][Ala(4-thiazolyl)][dNMeA][Nme][Phe(4-F)]T[Phe(4-Cl)][NMeF][dP])), the pIC50 is greater than 7.60 at Human MDM2 (HDM2) 1-116 and 7.30 to 7.60 against Human MDM4 (HDM4) 1-114.

Regarding `CC[C@H](C)[C@@H]1NC(=O)[C@H](Cc2ccc(F)cc2)NC(=O)CN(CCOC)C(=O)[C@@H](C)N(C)C(=O)[C@H](Cc2cscn2)NC(=O)[C@H](C)N(C)C(=O)[C@H](CCOC)NC(=O)[C@H]2CCCN2C(=O)[C@H](Cc2ccccc2)N(C)C(=O)[C@H](Cc2ccc(Cl)cc2)NC1=O` [compound 16] (cyclo([Ala(4-thiazolyl)][dNMeA][Nme][Phe(4-F)]I[Phe(4-Cl)][NMeF][dP][hSer](Me)[NMeA])), the pIC50 was greater than 7.60 on Human MDM2 (HDM2) 1-116 and 7.30 to 7.60 on Human MDM4 (HDM4) 1-114.
